According to ChEMBL document CHEMBL1145498, “A systematic interaction map of validated kinase inhibitors with Ser/Thr kinases” (Proc Natl Acad Sci U S A, 2007):

Experiments:
[1] = molecular target: Calcium/calmodulin-dependent protein kinase type II subunit delta (Homo sapiens) (UniProt Q13557)
[2] = molecular target: Dual specificity protein kinase CLK1 (Homo sapiens) (UniProt P49759)
[3] = molecular target: T1, Dual specificity mitogen-activated protein kinase kinase 6 (Homo sapiens) (UniProt P52564)
T1 sequence (whole entry): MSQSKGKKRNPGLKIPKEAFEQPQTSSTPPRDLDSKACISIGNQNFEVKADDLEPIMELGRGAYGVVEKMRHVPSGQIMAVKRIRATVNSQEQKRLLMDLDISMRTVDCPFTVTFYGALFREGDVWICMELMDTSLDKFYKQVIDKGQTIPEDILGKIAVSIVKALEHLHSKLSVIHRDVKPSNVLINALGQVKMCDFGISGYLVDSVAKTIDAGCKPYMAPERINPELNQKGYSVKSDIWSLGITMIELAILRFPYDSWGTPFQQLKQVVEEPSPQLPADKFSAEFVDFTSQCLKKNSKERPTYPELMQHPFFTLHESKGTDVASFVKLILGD

[4] = molecular target: Casein kinase I isoform gamma-3 (Homo sapiens) (UniProt Q9Y6M4)
[5] = molecular target: Dual specificity mitogen-activated protein kinase kinase 2 (Homo sapiens, UniProt P36507)
[6] = molecular target: Casein kinase I isoform gamma-2 (Homo sapiens) (UniProt P78368)
[7] = molecular target: Serine/threonine-protein kinase OSR1 (Homo sapiens) (UniProt O95747)
[8] = molecular target: Cyclin-dependent kinase-like 1 (Homo sapiens) (UniProt Q00532)
[9] = molecular target: T2, Serine/threonine-protein kinase VRK1 (Homo sapiens) (UniProt Q99986)
T2 sequence (whole entry): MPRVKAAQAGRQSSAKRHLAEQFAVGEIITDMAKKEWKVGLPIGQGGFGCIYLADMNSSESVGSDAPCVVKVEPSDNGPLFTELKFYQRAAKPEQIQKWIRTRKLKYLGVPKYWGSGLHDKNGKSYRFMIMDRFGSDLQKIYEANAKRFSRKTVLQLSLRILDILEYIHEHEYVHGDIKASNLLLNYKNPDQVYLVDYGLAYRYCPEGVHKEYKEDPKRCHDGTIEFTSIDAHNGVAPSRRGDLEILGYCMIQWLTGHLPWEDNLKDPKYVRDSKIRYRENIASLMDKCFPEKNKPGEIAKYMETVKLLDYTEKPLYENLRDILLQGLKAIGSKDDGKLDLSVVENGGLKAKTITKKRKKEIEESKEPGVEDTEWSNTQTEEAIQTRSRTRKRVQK

[10] = molecular target: Serine/threonine-protein kinase pim-3 (Homo sapiens) (UniProt Q86V86)
[11] = molecular target: Ribosomal protein S6 kinase alpha-3 (Homo sapiens) (UniProt P51812)
[12] = molecular target: Cyclin-dependent kinase 6 (Homo sapiens) (UniProt Q00534)
[13] = molecular target: Serine/threonine-protein kinase PAK 5 (Homo sapiens) (UniProt Q9P286)
[14] = molecular target: T3, Serine/threonine-protein kinase VRK3 (Homo sapiens) (UniProt Q8IV63)
T3 sequence (whole entry): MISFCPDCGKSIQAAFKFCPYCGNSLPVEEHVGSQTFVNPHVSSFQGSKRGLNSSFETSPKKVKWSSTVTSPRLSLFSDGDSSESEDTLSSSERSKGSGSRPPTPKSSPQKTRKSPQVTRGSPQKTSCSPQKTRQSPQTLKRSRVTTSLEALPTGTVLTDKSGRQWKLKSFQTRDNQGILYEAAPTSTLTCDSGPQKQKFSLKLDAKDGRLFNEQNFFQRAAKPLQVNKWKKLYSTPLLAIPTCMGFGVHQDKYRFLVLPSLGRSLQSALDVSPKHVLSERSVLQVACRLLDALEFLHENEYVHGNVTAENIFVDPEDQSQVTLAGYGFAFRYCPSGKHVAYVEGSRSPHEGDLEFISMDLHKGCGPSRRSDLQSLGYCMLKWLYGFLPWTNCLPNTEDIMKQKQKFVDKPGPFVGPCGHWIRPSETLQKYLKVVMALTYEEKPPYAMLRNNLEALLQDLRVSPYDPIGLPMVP

[15] = molecular target: Tyrosine-protein kinase JAK1 (Homo sapiens) (UniProt P23458)
[16] = molecular target: Calcium/calmodulin-dependent protein kinase type II subunit gamma (Homo sapiens) (UniProt Q13555)
[17] = molecular target: Mitogen-activated protein kinase 3 (Homo sapiens, UniProt P27361)
[18] = molecular target: Serine/threonine-protein kinase Chk2 (Homo sapiens, UniProt O96017)
[19] = molecular target: Serine/threonine-protein kinase 26 (Homo sapiens) (UniProt Q9P289)
[20] = molecular target: Death-associated protein kinase 3 (Homo sapiens) (UniProt O43293)
[21] = molecular target: Calcium/calmodulin-dependent protein kinase type II subunit alpha (Homo sapiens) (UniProt Q9UQM7)
[22] = molecular target: Serine/threonine-protein kinase 38 (Homo sapiens) (UniProt Q15208)
[23] = molecular target: Cyclin-dependent kinase 16 (Homo sapiens) (UniProt Q00536)
[24] = molecular target: Serine/threonine-protein kinase PLK1 (Homo sapiens) (UniProt P53350)
[25] = molecular target: 5'-AMP-activated protein kinase catalytic subunit alpha-2 (Homo sapiens) (UniProt P54646)
[26] = molecular target: Calcium/calmodulin-dependent protein kinase type II subunit beta (Homo sapiens) (UniProt Q13554)
[27] = molecular target: Serine/threonine-protein kinase RIO2 (Homo sapiens) (UniProt Q9BVS4)
[28] = molecular target: Cyclin-dependent kinase 2 (Homo sapiens, UniProt P24941)
[29] = molecular target: STE20-like serine/threonine-protein kinase (Homo sapiens) (UniProt Q9H2G2)

5'-AMP-activated protein kinase catalytic subunit alpha-2 (Homo sapiens), sequence (P54646 whole entry, looked up): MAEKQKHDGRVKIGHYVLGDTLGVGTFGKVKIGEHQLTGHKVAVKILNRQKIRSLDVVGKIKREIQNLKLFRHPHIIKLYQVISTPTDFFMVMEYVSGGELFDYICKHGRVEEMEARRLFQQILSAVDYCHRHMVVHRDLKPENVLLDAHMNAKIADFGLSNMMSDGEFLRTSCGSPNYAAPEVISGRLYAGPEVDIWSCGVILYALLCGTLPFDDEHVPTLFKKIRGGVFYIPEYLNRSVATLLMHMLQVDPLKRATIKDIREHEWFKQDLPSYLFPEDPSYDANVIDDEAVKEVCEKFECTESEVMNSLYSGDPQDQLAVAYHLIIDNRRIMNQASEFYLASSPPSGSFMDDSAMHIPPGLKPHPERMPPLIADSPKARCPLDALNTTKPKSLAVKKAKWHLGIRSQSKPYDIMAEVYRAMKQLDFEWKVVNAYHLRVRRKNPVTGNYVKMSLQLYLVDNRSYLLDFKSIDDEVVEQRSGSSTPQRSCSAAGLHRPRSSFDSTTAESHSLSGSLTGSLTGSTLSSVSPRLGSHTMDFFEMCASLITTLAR
Ribosomal protein S6 kinase alpha-3 (Homo sapiens), sequence (P51812 whole entry): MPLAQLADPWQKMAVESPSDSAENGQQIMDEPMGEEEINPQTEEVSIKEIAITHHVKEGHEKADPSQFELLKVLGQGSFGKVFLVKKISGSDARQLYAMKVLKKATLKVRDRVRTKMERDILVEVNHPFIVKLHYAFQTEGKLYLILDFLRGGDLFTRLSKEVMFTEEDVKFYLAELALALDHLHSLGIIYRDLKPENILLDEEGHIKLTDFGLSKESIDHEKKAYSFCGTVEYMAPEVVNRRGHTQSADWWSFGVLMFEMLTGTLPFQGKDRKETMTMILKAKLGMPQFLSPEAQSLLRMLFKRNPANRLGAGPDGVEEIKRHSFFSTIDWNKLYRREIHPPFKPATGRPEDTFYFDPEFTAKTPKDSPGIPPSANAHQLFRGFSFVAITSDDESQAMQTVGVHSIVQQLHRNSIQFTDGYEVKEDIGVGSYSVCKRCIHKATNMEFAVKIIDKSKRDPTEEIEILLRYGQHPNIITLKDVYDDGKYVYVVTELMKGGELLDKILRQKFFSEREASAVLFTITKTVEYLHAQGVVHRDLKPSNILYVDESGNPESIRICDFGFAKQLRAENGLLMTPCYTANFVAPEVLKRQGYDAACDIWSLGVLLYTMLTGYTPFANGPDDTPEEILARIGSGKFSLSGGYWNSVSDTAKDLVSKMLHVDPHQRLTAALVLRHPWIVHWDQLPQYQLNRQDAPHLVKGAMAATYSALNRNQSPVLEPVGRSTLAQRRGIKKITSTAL
Casein kinase I isoform gamma-2 (Homo sapiens), sequence (P78368 whole entry, looked up, canonical isoform): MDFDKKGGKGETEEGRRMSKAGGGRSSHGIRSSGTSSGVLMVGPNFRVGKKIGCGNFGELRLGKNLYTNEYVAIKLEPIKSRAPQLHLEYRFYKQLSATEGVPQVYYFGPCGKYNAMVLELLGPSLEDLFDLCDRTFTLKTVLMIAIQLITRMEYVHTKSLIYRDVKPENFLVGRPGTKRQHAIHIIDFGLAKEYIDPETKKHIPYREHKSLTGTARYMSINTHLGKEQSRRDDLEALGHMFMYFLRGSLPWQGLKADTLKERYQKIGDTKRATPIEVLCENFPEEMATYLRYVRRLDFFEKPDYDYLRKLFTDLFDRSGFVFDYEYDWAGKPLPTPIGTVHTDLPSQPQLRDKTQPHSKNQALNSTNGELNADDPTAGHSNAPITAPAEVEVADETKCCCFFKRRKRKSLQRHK
Serine/threonine-protein kinase OSR1 (Homo sapiens), sequence (O95747 2-527 limits assumed): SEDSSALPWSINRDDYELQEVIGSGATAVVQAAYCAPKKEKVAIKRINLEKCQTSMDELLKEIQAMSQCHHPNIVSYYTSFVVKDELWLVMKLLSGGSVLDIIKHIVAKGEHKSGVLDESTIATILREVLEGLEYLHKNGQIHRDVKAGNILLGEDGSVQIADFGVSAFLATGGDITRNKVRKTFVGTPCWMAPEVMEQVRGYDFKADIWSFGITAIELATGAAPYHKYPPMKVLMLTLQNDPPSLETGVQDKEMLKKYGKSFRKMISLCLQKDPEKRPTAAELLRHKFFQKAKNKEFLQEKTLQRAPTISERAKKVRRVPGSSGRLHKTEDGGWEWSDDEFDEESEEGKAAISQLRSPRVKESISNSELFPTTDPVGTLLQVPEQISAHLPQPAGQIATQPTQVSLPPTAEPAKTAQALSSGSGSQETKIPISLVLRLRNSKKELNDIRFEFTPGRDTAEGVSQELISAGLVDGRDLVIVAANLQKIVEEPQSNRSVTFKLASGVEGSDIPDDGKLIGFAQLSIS
Calcium/calmodulin-dependent protein kinase type II subunit beta (Homo sapiens), sequence (Q13554 whole entry): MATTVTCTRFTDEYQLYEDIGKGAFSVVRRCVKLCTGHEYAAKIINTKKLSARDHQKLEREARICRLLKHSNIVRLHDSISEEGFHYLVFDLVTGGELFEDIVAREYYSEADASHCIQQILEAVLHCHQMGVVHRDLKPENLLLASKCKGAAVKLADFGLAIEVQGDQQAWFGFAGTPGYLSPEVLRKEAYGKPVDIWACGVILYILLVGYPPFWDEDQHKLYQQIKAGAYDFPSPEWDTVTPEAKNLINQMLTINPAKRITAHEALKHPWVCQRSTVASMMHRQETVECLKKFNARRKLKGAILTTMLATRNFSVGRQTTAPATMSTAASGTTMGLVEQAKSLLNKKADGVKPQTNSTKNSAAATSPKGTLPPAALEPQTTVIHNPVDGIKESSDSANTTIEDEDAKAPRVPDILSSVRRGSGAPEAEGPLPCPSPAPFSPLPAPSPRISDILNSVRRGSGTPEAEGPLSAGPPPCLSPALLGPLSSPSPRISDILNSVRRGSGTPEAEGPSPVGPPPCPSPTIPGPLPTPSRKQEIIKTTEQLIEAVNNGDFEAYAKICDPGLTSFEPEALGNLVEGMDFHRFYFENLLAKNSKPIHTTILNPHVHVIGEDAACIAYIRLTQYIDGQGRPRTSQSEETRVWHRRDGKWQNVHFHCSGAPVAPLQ
Cyclin-dependent kinase 6 (Homo sapiens), sequence (Q00534 whole entry): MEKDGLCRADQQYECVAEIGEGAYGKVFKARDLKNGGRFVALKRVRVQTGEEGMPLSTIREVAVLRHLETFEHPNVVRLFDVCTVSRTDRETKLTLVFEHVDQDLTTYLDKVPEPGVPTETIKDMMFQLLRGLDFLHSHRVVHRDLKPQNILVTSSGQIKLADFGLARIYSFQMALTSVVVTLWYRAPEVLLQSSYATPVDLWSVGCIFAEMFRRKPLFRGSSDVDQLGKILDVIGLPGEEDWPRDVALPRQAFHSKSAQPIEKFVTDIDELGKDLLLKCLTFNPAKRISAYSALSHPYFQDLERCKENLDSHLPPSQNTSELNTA
Cyclin-dependent kinase 16 (Homo sapiens), sequence (Q00536 whole entry): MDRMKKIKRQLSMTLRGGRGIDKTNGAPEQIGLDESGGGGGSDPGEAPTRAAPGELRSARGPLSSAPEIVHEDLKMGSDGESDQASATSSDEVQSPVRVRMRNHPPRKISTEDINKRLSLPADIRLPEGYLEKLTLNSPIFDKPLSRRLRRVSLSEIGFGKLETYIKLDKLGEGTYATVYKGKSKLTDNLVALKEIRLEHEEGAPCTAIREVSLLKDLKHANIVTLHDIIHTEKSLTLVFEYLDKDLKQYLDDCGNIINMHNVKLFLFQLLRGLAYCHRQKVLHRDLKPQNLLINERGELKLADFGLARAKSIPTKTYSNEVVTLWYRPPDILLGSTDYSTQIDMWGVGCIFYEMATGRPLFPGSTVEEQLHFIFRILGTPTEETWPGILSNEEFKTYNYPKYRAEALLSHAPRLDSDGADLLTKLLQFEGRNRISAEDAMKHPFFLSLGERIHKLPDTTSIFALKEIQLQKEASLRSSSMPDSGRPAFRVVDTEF
Serine/threonine-protein kinase 38 (Homo sapiens), sequence (Q15208 2-465 limits assumed): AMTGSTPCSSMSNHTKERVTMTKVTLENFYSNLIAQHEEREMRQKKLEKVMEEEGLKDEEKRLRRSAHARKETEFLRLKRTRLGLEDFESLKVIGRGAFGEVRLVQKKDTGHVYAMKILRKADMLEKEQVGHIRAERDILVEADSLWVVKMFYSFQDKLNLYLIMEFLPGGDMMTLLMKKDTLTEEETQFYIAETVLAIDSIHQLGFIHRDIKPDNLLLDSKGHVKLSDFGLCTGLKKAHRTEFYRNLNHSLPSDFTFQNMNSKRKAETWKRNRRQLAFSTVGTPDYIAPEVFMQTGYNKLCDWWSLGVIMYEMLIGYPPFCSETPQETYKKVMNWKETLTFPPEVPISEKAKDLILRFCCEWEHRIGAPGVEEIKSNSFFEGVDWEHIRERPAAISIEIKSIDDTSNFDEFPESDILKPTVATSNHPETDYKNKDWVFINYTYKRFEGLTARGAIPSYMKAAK
Serine/threonine-protein kinase RIO2 (Homo sapiens), sequence (Q9BVS4 whole entry, looked up): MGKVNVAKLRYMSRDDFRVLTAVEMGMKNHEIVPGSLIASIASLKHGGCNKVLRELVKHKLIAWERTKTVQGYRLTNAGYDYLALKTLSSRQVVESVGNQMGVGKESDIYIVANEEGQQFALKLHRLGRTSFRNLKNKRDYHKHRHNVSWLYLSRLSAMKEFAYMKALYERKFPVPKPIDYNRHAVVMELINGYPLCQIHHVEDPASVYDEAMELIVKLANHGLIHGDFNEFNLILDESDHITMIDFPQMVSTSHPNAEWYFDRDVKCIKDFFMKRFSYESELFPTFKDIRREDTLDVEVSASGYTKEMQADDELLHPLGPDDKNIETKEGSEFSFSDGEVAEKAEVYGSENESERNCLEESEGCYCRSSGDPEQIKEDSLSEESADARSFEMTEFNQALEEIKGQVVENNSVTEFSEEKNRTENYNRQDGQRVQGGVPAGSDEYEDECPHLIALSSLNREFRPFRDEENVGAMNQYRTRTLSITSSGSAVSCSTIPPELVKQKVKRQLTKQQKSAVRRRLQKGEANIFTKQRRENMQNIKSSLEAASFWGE

Compound	ΔTm [1] [°C]	ΔTm [2] [°C]	ΔTm [3] [°C]	ΔTm [4] [°C]	ΔTm [5] [°C]	ΔTm [6] [°C]	ΔTm [7] [°C]	ΔTm [8] [°C]	ΔTm [9] [°C]	ΔTm [10] [°C]	ΔTm [11] [°C]	ΔTm [12] [°C]	ΔTm [13] [°C]	ΔTm [14] [°C]	ΔTm [15] [°C]	ΔTm [16] [°C]	ΔTm [17] [°C]	ΔTm [18] [°C]	ΔTm [19] [°C]	ΔTm [20] [°C]	other results
Nc1cccc(-c2cc3c(Oc4cccc(O)c4)ncnc3[nH]2)c1	0.1	1.8	2.7	1	2.7	1.2	1.7	0.6	0.8	0.3	5.7	0.9	1.7	2.2	4.3	0.1	0	1.7	0.8	0.4	ΔTm [21]: 0.5 °C; ΔTm [22]: 2.2 °C; ΔTm [23]: 0.1 °C; ΔTm [24]: 4.4 °C; ΔTm [25]: 0.6 °C; ΔTm [26]: 0.5 °C; ΔTm [27]: 2.4 °C; ΔTm [28]: 0.9 °C; ΔTm [29]: 6.7 °C
COc1ccc(S(=O)(=O)N(CCO)c2ccccc2CN(C)C/C=C/c2ccc(Cl)cc2)cc1	-1.2	0.1	0.4	0	-0.2	0.3	-0.7	-1.2	0	0.5	0.7	-0.3	-0.4	-0.6	-0.5	-0.6	0.1	-0.1	0.1	0.2	ΔTm [21]: -0.7 °C; ΔTm [22]: -0.2 °C; ΔTm [23]: -0.6 °C; ΔTm [24]: -0.2 °C; ΔTm [25]: -1 °C; ΔTm [26]: -1.6 °C; ΔTm [27]: -0.4 °C; ΔTm [28]: 0 °C; ΔTm [29]: 1.1 °C
CCOc1ccc(/C=C2/SC(=O)N(CCN)C2=O)cc1 [HIAZOLIDINEDIONE1]	0	0.9	0.1	-0.1	0.4	0.6	-0.1	0.3	0.3	0.5	0	0.2	0.1	-1.1	-0.1	0	-0.1	0.7	-0.3	0.3	ΔTm [21]: -0.2 °C; ΔTm [22]: 0.5 °C; ΔTm [23]: 0.2 °C; ΔTm [24]: 0.6 °C; ΔTm [25]: 0.1 °C; ΔTm [26]: -0.5 °C; ΔTm [27]: -0.2 °C; ΔTm [28]: -0.1 °C; ΔTm [29]: -0.4 °C
C=CNC#N	0.7	0.8	0.3	0.8	1.8	0.1	0	-0.1	1	1	1	0.1	0.5	0.9	-0.9	0.5	-0.6	0.1	-1.4	-0.2	ΔTm [21]: 0.7 °C; ΔTm [22]: 0.7 °C; ΔTm [23]: 0.4 °C; ΔTm [24]: 0.1 °C; ΔTm [25]: -0.7 °C; ΔTm [26]: 1.2 °C; ΔTm [27]: 0 °C; ΔTm [28]: -0.2 °C; ΔTm [29]: 0.1 °C

Second part, led by results:

ΔTm [1] [°C]	ΔTm [2] [°C]	ΔTm [3] [°C]	ΔTm [4] [°C]	ΔTm [5] [°C]	ΔTm [6] [°C]	ΔTm [7] [°C]	ΔTm [8] [°C]	ΔTm [9] [°C]	ΔTm [10] [°C]	ΔTm [11] [°C]	ΔTm [12] [°C]	ΔTm [13] [°C]	ΔTm [14] [°C]	ΔTm [15] [°C]	ΔTm [16] [°C]	ΔTm [17] [°C]	ΔTm [18] [°C]	ΔTm [19] [°C]	Compound	ΔTm [20] [°C]	other results
0.6	2	0.3	-0.2	0.8	0.6	1	0	0	2.7	0.2	0.2	0.4	0.1	2.7	0.5	0.7	2.6	1.3	CCOc1cc2ncnc(Nc3cccc(Br)c3)c2cc1OCC	2.7	ΔTm [21]: 0.7 °C; ΔTm [22]: 0.7 °C; ΔTm [23]: -1 °C; ΔTm [24]: 0.2 °C; ΔTm [25]: 0.1 °C; ΔTm [26]: 0.8 °C; ΔTm [27]: 3.5 °C; ΔTm [28]: 0.4 °C; ΔTm [29]: 7.9 °C
-0.1	1.6	0.3	0.4	0.1	0.4	0.7	0.2	0.2	1.3	0.9	0.6	0.2	0.4	2.2	0.4	0.3	0.5	0.7	Nc1n[nH]c2nc3ccccc3nc12 [QUINOXALINE1]	1	ΔTm [21]: 0.7 °C; ΔTm [22]: 0.4 °C; ΔTm [23]: -0.1 °C; ΔTm [24]: 0.3 °C; ΔTm [25]: -0.1 °C; ΔTm [26]: 0.3 °C; ΔTm [27]: 0.4 °C; ΔTm [28]: 1.3 °C; ΔTm [29]: 2 °C
-0.4	6.5	0.5	0.3	1.8	0.3	1	0.4	0.3	6.1	2.9	0	1	0	4.8	1.1	0	0.4	-0.1	Cc1nc2sccn2c(=O)c1CCN1CCC(=C(c2ccccc2)c2ccc(F)cc2)CC1	4.2	ΔTm [21]: 1.3 °C; ΔTm [22]: 0.6 °C; ΔTm [23]: -0.5 °C; ΔTm [24]: 0.6 °C; ΔTm [25]: -0.1 °C; ΔTm [26]: 0.9 °C; ΔTm [27]: 4.5 °C; ΔTm [28]: 1.2 °C; ΔTm [29]: 1 °C
-0.1	0.9	-0.1	0.4	-0.3	0	0.7	-0.1	0	3.2	0.2	-0.1	0.1	0.3	0.2	0.4	0.1	0.2	0	NCCNS(=O)(=O)c1cccc2c(Cl)cccc12	3.2	ΔTm [21]: 0.7 °C; ΔTm [22]: -0.1 °C; ΔTm [23]: -0.1 °C; ΔTm [24]: 0.4 °C; ΔTm [25]: -0.2 °C; ΔTm [26]: 0.4 °C; ΔTm [27]: 0.2 °C; ΔTm [28]: 0.1 °C; ΔTm [29]: 0.1 °C
